{"source": "patent US9393225B2", "about": "“Melanoma chemoprevention” (University of Pittsburgh—Of the Commonwealth System of …, priority 2012, dated 2016)", "key": {"SK-MEL37": {"tested_on": "SK-MEL37", "settings": "different concentrations of SFN for 24, 48, or 72 h, FIG. 1"}, "SK-MEL 31 cells [1]": {"tested_on": "SK-MEL 31 cells", "settings": "24 hours", "experimental": "(§1) Apoptosis induction in SFN-treated SK-MEL 31 cells was assessed by (i) quantification of cytoplasmic histone associated DNA fragments, (ii) Western blot analysis for PARP cleavage and (iii) DAPI dye for nuclear morphology assay. For quantification of cytoplasmic histone-associated DNA fraction, SK-MEL 31 cells were seeded at 4×10^3 cells/well in 96-well plate and allowed to attach overnight. […] After 24 hours, the floating and attached cells were pelleted and lysed with lysis buffer supplied with the cell death detection ELISA kit, lysates were assayed for apoptosis according to the manual. SK-MEL 31 cells were seeded at 1×10^4 cells/well on a round glass coverslip in 12 well plates. Cells were then incubated for 24 hours with 0, 10, or 20 μM SFN, attached cells were fixed with 3% paraformaldehyde in PBS, permeabilized with 1% TRITON® X-100, stained with DAPI dye and inspected under a fluorescent microscope after stained with DAPI."}, "PARP": {"tested_on": "PARP", "settings": "20 μM SFN, from 16 to 24 hour after treatment", "experimental": "as §1\nCell lysate was cleared by centrifugation at 16000 rpm for 15 min. Lysate proteins were resolved by SDS-PAGE gel electrophoresis and transferred onto nitrocellulose membrane. The membrane was immersed into a phosphate buffered saline (PBS) solution containing 0.2% TWEEN® 20 and 5% (w/v) non-fat dry milk, and then incubated with desired primary antibody for 1 hour at room temperature. […]"}, "Bax and Bak": {"tested_on": "Bax and Bak", "settings": "20 μM SFN", "experimental": "(§2) Cell lysate was cleared by centrifugation at 16000 rpm for 15 min. Lysate proteins were resolved by SDS-PAGE gel electrophoresis and transferred onto nitrocellulose membrane. The membrane was immersed into a phosphate buffered saline (PBS) solution containing 0.2% TWEEN® 20 and 5% (w/v) non-fat dry milk, and then incubated with desired primary antibody for 1 hour at room temperature. After incubation with appropriate secondary antibody, the immunoreactive bands were visualized using enhanced chemiluminescence method. The conjugated horseradish peroxidase (HRP) secondary antibody was deactivated with sodium azide, then membranes were re-probed with anti-actin antibody to standardize protein loading. For cytochrome c and Smac/DIABLO, the cytosolic fractions were prepared with the PROTEOEXTRACT™ Subcellular Proteome Extraction kit according to the manufacturer's instructions and Western blot analysis were performed as described above."}, "Bcl-2": {"tested_on": "Bcl-2", "settings": "20 μM SFN, all time points", "experimental": "as §2"}, "Bcl-XL": {"tested_on": "Bcl-XL", "settings": "20 μM SFN, evident from the 2 hour time point", "experimental": "as §2"}, "Smac and cytochrome c": {"tested_on": "Smac and cytochrome c", "settings": "SFN incubation; significant increases after 8 hours", "experimental": "as §2"}, "cIAP1 and XIAP": {"tested_on": "cIAP1 and XIAP", "settings": "SFN treatment, with time increasing", "experimental": "as §2"}, "[2]": {"tested_on": "procaspase-9, procaspase-8 and procaspase-3", "settings": "20 μM SFN, 24 hour time point", "experimental": "as §2"}, "caspase-8": {"tested_on": "caspase-8", "settings": "20 μM SFN", "text": "(§3) RPMI 1640, penicillin/streptomycin antibiotic mixture, and fetal bovine serum were from Gibco (Grand Island, N.Y.), propidium iodide and 4′,6′-diamidino-2-phenylindole-dihydrochloride (DAPI) were from Sigma (St Louis, Mo.). LIPOFECTAMINE 2000™ and G418 were purchased from Invitrogen (Carlsbad, Calif.). RNaseA was purchased from Promega (Madison, Wis.), and the reagents for electrophoresis were from Bio-Rad (Hercules, Calif.). Antibodies for Bcl-XL, Bak and cytochrome c were purchased from Santa Cruz Biotechnology (Santa Cruz, Calif.), antibodies specific for Bax, Smac/DIABLO, cleaved caspase-3 and cleaved caspase-8, cleaved caspase-9, cIAP1 and poly (ADP-ribose) polymerase (PARP) were purchased from Cell Signaling Technology (Beverly, Mass.), anti Bcl-2 antibody was purchased from Dakocytomation (Denmark), anti XIAP (X-linked inhibitor of apoptosis) antibody was purchased from BD PharMingen (San Diego, Calif.). Anti actin antibody was purchased from Oncogene Research Products (Boston, Mass.). The caspase inhibitors z-VAD fmk (general caspase inhibitor), z-IETD fmk (caspase-8 specific inhibitor) and z-LEHD fmk (caspase-9 specific inhibitor) were purchased from MP Biochemicals (Aurora, Ohio). The caspase-8 and caspase-9 colorimetric assay kits were purchased from R&D systems (Minneapolis, Minn.). Cytoplasmic histone associated DNA fragments detection ELISA kit was purchased from Roche Diagnostics GmbH (Mannheim, Germany). ProteoExtract™ Subcellular Proteome Extraction kit was purchased from Calbiochem (San Diego, Calif.).\n(§4) Caspases are aspartate-specific cysteine proteases that play critical roles in apoptosis. Activation of caspases results in cleavage and inactivation of key cellular proteins, including the DNA repair enzyme PARP."}, "caspase-9": {"tested_on": "caspase-9", "settings": "20 μM SFN, 24 hours", "text": "as §3, §4"}, "[3]": {"tested_on": "Cyclin B1, Cdk1, and Cdc25", "settings": "SK-MEL31 cells, 20 μM SFN; FIG. 2", "text": "The blots were stripped and re-probed with anti-actin antibody to normalize for differences in protein loading."}, "[4]": {"settings": "mice, at the doses used", "experimental": "(§5) Female athymic mice (6-week-old) were purchased from Taconic (Germantown, N.Y.). SK-MEL 31 cells were suspended in pharmacological grade normal saline, and 0.1 ml suspension containing 5×10^6 cells was injected subcutaneously on right flank of each mouse. Mice were randomized into two groups of 10 mice per group. Experimental animals were gavaged with SFN (5.6 μmol SFN in 0.1 ml normal saline) three times per week (Monday, Wednesday and Friday) beginning two weeks before tumor implantation. Control mice received an equal volume of the vehicle. Tumor volume was determined based on measurement of the length and width of the tumor, […]. Statistical significance of difference in tumor volume was assessed by Student's t-test. Upon the termination of the experiment, the tumor tissues were harvested and processed for analysis of apoptotic bodies by immunohistochemistry method. Tumor tissues were embedded in paraffin, sectioned (6 μm), de-paraffinized and processed for determination of apoptotic bodies using APOTAG® Plus Peroxidase In Situ Apoptosis detection kit (Intergen, NY) according to the manufacturer's instructions. Brown color apoptotic bodies in tumor sections of control and SFN-treated group were counted by two pathologists independently and blindly under a microscope at 400× magnification. Four randomly selected fields on each tumor section were counted for apoptotic bodies."}, "SK-MEL 31 xenografts": {"tested_on": "SK-MEL 31 xenografts", "experimental": "as §5"}, "SK-MEL 31 cells [5]": {"tested_on": "SK-MEL 31 cells", "settings": "20 μM SFN, 24 hours, p<0.05"}, "STAT3": {"tested_on": "STAT3", "settings": "administered orally to SCID mice; FIG. 3"}, "SK-MEL 31 cells [6]": {"tested_on": "SK-MEL 31 cells", "test": "Trypan blue dye exclusion assay (cell proliferation / viability)", "settings": "for number of viable cells compared with control: 24 hour"}}, "note": "Read-outs that look alike come from different tables or passages of the source."}
{"smiles": "C[S+]([O-])CCCCN=C=S", "note": "(centres unmarked) [SFN, 1-isothiocyanato-4-(methylsulfinyl)-butane]", "values": [{"measurement": "melanoma cell growth in vitro (cell viability)", "setting": "SK-MEL37", "value": "inhibits melanoma cell growth in vitro"}, {"measurement": "increase in cytoplasmic histone associated DNA fragments compared with DMSO treated control", "setting": "SK-MEL 31 cells [1]; 5 μM SFN", "value": "~4.7", "unit": "fold"}, {"measurement": "increase in cytoplasmic histone associated DNA fragments compared with DMSO treated control", "setting": "SK-MEL 31 cells [1]; 10 μM SFN", "value": "~11.4", "unit": "fold"}, {"measurement": "condensed nucleus ratio", "setting": "SK-MEL 31 cells [1]; SFN 10 or 20 μM, FIG. 5C", "value": "increased significantly"}, {"measurement": "PARP cleavage", "setting": "PARP", "value": "obvious increase of PARP cleavage"}, {"measurement": "Bax and Bak protein level", "setting": "Bax and Bak", "value": "no significant level changes"}, {"measurement": "Bcl-2 protein level", "setting": "Bcl-2", "value": "No marked change"}, {"measurement": "Bcl-XL protein level", "setting": "Bcl-XL", "value": "down-regulation"}, {"measurement": "cytosolic levels of Smac and cytochrome c", "setting": "Smac and cytochrome c", "value": "time-dependent increases"}, {"measurement": "cIAP1 and XIAP level", "setting": "cIAP1 and XIAP", "value": "consecutive cIAP1 and XIAP level decreases"}, {"measurement": "cleavage of procaspase-9, procaspase-8 and procaspase-3", "setting": "[2]", "value": "resulted in cleavage"}, {"measurement": "caspase-8 activity increase compared with the control group", "setting": "caspase-8; 16 hour", "value": 45, "unit": "%"}, {"measurement": "caspase-8 activity increase compared with the control group", "setting": "caspase-8; 24 hour", "value": 73, "unit": "%"}, {"measurement": "increase in caspase-9 activity", "setting": "caspase-9", "value": 148, "unit": "%"}, {"measurement": "melanoma cell Cyclin B1, Cdk1, and Cdc25", "setting": "[3]", "value": "inhibits"}, {"measurement": "side effect (weight loss, organ weight difference)", "setting": "[4]", "value": "No side effect was observed"}, {"measurement": "reduction in tumor volume", "setting": "SK-MEL 31 xenografts; 16 days after tumor implantation, versus control, p<0.01", "value": 50, "unit": "%"}, {"measurement": "average tumor volume", "setting": "SK-MEL 31 xenografts; 16 days after tumor implantation, gavage 5.6 μmol SFN three times per week", "value": "154.4±95.4", "unit": "mm^3"}, {"measurement": "tumor wet weight", "setting": "SK-MEL 31 xenografts; oral SFN versus control, p<0.01", "value": "significant decrease"}, {"measurement": "count of apoptotic bodies in tumor sections versus controls (TUNEL assay)", "setting": "SK-MEL 31 xenografts; oral SFN, p<0.05", "value": "~4.4", "unit": "fold"}, {"measurement": "cell cycle distribution", "setting": "SK-MEL 31 cells [5]", "value": "significantly increase of Sub-G0/G1 and G2M phase and decreased G0/G1 phase cell number"}, {"measurement": "STAT3 expression in human melanoma cells transplanted into mice", "setting": "STAT3", "value": "lowered STAT3 expression"}, {"measurement": "number of viable cells compared with control", "setting": "SK-MEL 31 cells [6]; 10 μM SFN", "value": 58, "unit": "%"}, {"measurement": "number of viable cells compared to control", "setting": "SK-MEL 31 cells [6]; 10 μM SFN, 48 hour", "value": 27, "unit": "%"}, {"measurement": "number of viable cells compared to control", "setting": "SK-MEL 31 cells [6]; 10 μM SFN, 72 hour", "value": 19, "unit": "%"}, {"measurement": "number of viable cells compared with control", "setting": "SK-MEL 31 cells [6]; 20 μM SFN", "value": 46, "unit": "%"}, {"measurement": "number of viable cells compared to control", "setting": "SK-MEL 31 cells [6]; 20 μM SFN, 48 hour", "value": 23, "unit": "%"}, {"measurement": "number of viable cells compared to control", "setting": "SK-MEL 31 cells [6]; 20 μM SFN, 72 hour", "value": 13, "unit": "%"}, {"measurement": "number of viable cells compared with control", "setting": "SK-MEL 31 cells [6]; 40 μM SFN", "value": 26, "unit": "%"}, {"measurement": "number of viable cells compared to control", "setting": "SK-MEL 31 cells [6]; 40 μM SFN, 48 hour", "value": 10, "unit": "%"}, {"measurement": "number of viable cells compared to control", "setting": "SK-MEL 31 cells [6]; 40 μM SFN, 72 hour", "value": 10, "unit": "%"}, {"measurement": "melanoma cell growth in vitro (cell viability)", "setting": "SK-MEL 31 cells [6]; SK-MEL31, different concentrations of SFN for 24, 48, or 72 h, FIG. 1", "value": "inhibits melanoma cell growth in vitro"}]}
